Laboratory results from patent US6949544B2, “Inhibitors of c-Jun N-terminal kinases (JNK) and other protein kinases” (Vertex Pharmaceuticals Incorporated, priority 2001, dated 2005).

Molecular target: T1, activated JNK3 (Homo sapiens, UniProt P53779)
T1 construct: One such construct encodes amino acid residues Ser40-Glu402 of JNK3α1 and is preceded by Met and Gly residues; Met-Gly (initiator methionine and added glycine) (N); made in house; host or cells: E. coli BL21 (DE3)
Test: JNK inhibition assay (spectrophotometric coupled-enzyme assay)
Type: biochemical
Conditions: 10 nM activated JNK3, 10 μM ATP; read-out: Activity in the JNK3 Inhibition Assay (Ki rating A-C)
Summary of the method: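 Activated (doubly phosphorylated, MKK7(DD)-activated) human JNK3, 10 nM, preincubated 10 min at 30 °C with inhibitor in 0.1 M HEPES pH 7.5, 10 mM MgCl2, 200 μM EGF receptor peptide, PK/LDH-coupled. Started with 10 μM ATP; A340 decrease followed at 30 °C. Ki from competitive inhibition model fit.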

T1 sequence (P53779 40-402): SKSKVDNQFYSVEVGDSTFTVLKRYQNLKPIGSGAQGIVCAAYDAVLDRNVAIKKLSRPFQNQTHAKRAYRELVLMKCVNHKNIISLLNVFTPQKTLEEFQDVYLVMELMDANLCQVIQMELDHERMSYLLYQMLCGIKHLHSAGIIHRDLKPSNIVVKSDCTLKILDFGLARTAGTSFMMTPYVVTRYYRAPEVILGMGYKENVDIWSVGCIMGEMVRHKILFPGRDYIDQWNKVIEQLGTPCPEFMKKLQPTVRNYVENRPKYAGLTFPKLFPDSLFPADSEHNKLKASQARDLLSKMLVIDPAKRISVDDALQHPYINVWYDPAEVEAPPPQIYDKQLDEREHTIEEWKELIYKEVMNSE

`COc1cc(-c2ccnc(Nc3ccc(N)cc3)n2)cc(OC)c1OC` [Compound I-34] gave a Ki of less than 100 nM.
For `COc1cc(-c2ccnc(Nc3cccc(N)c3)n2)cc(OC)c1OC` [Compound I-57], the Ki was less than 100 nM.
